Laboratory results from ChEMBL document CHEMBL5385856, “Novel 1,4,5,6-tetrahydrocyclopenta[d]imidazole-5-carboxamide-based JNK3 inhibitors: Design, synthesis, molecular docking, and therapeutic potential in neurodegenerative diseases” (Eur J Med Chem, 2023).

Test system: Cortical neurone
Assay: Neuroprotective activity against Abeta42-induced neuronal apoptosis in Sprague-Dawley rat primary cortical neuron cells assessed as cell viability at 20 uM preincubated for 90 mins followed by Abeta42 addition for 24 hrs and measured on day 5 by MTT assay (reference value: 52%)
Format: functional
Conditions: 120 h, time 5 day, read-out: Activity

Oc1ccc(/C=C/c2cc(O)cc(O)c2)cc1 [RESVERATROL]
viability at 20 µM: 84.2%
